Measurements reported in patent publication US8952024B2, “Herbicidal pyrimidone derivatives” (E I du Pont de Nemours and Company, priority 2009, dated 2015).

Legend:
Assay in all cases: Test D pre-/postemergence plant response
Assay type in all cases: in vivo
[1] = test system: Russian thistle (Salsola kali)
Outline: (§1)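 Greenhouse assay: sown seeds in loam/sand received preemergence spray; simultaneously, emerged seedlings (1- to 4-leaf, 2–18 cm) got postemergence spray of the same surfactant-containing formulation. Rating at 14–21 days by visual comparison with controls, 0 = no effect to 100 = complete control.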

[2] = test system: Surinam grass (Brachiaria decumbens)
Outline: as §1

[3] = test system: barnyardgrass (Echinochloa crus-galli)
Outline: as §1

[4] = test system: black mustard (Brassica nigra)
Outline: as §1

[5] = test system: chickweed (common chickweed, Stellaria media); settings: Postemergence
Outline: as §1

[6] = test system: dallisgrass (Paspalum dilatatum)
Outline: as §1

[7] = test system: guineagrass (Panicum maximum)
Outline: as §1

[8] = test system: itchgrass (Rottboellia cochinchinensis)
Outline: as §1

kochia (Kochia scoparia) = test system: kochia (Kochia scoparia)
Outline: as §1

[9] = test system: large crabgrass (Digitaria sanguinalis)
Outline: as §1

[10] = test system: morningglory (pitted morningglory, Ipomoea lacunosa)
Outline: as §1

[11] = test system: nutsedge (purple nutsedge, Cyperus rotundus)
Outline: as §1

[12] = test system: purslane (common purslane, Portulaca oleracea)
Outline: as §1

[13] = test system: signalgrass (broadleaf signalgrass, Brachiaria platyphylla)
Outline: as §1

[14] = test system: sowthistle (common sowthistle, Sonchus oleraceous)
Outline: as §1

[15] = test system: spanishneedles (Bidens bipinnata)
Outline: as §1

[16] = Postemergence, 16 g ai/ha, scale 0 to 100
[17] = Postemergence, 31 g ai/ha, scale 0 to 100
[18] = Postemergence, 62 g ai/ha, scale 0 to 100 (0 no effect, 100 complete control)
[19] = Preemergence, 31 g ai/ha, scale 0 to 100 (0 no effect, 100 complete control)
[20] = Preemergence, 125 g ai/ha, scale 0 to 100
[21] = Postemergence, 125 g ai/ha, scale 0 to 100 (0 no effect, 100 complete control)
[22] = Preemergence, 16 g ai/ha, scale 0 to 100, 0 no effect, 100 complete control
[23] = Preemergence, rate not given, scale 0 to 100, 0 no effect, 100 complete control
[24] = Postemergence, 31 g ai/ha, scale 0 to 100 (0 no effect, 100 complete control)
[25] = Preemergence, 62 g ai/ha, scale 0 to 100

O=C1CCCC(O)=C1C(=O)c1cnc(-c2ccccc2)n(C2CCCCC2)c1=O [Compound 128, 3-cyclohexyl-5-[(2-hydroxy-6-oxo-1-cyclohexen-1-yl)carbonyl]-2-phenyl-4(3H)-pyrimidinone]
Plant response rating, Russian Thistle [1, 16]: 0 | Plant response rating, Russian Thistle [1, 17]: 0 | Plant response rating, Russian Thistle [1, 18]: 20 | Plant response rating, Russian Thistle [1, 19]: 0 | Plant response rating, Russian Thistle [1, 20]: 100 | Plant response rating, Surinam Grass [2, 17]: 25 | Plant response rating, Surinam Grass [2, 21]: 50 | Plant response rating, Surinam Grass [2, 18]: 30 | Plant response rating, Surinam Grass [2, 22]: 0 | Plant response rating, Surinam Grass [2, 19]: 35 | Plant response rating, Surinam Grass [2, 20]: 90 | Plant response rating, Surinam Grass [2, 23]: 80 | Plant response rating, Barnyardgrass [3, 16]: 35 | Plant response rating, Barnyardgrass [3, 24]: 70 | Plant response rating, Barnyardgrass [3, 21]: 90 | Plant response rating, Barnyardgrass [3, 18]: 70 | Plant response rating, Barnyardgrass [3, 22]: 0 | Plant response rating, Barnyardgrass [3, 19]: 0 | Plant response rating, Barnyardgrass [3, 25]: 5 | Plant response rating, Barnyardgrass [3, 20]: 15 | Plant response rating, Black Mustard [4, 16]: 95 | Plant response rating, Black Mustard [4, 24]: 95 | Plant response rating, Black Mustard [4, 21]: 95 | Plant response rating, Black Mustard [4, 18]: 95 | Plant response rating, Black Mustard [4, 22]: 60 | Plant response rating, Black Mustard [4, 19]: 60 | Plant response rating, Black Mustard [4, 25]: 85 | Plant response rating, Black Mustard [4, 20]: 95 | Plant response rating, Chickweed ([5]; 16 g ai/ha, scale 0 to 100): 60 | Plant response rating, Chickweed ([5]; 125 g ai/ha, scale 0 to 100 (0 no effect, 100 complete control)): 70 | Plant response rating, Chickweed ([5]; 62 g ai/ha, scale 0 to 100 (0 no effect, 100 complete control)): 65 | Plant response rating, Dallisgrass [6, 16]: 10 | Plant response rating, Dallisgrass [6, 17]: 20 | Plant response rating, Dallisgrass [6, 21]: 60 | Plant response rating, Dallisgrass [6, 18]: 30 | Plant response rating, Dallisgrass [6, 22]: 0 | Plant response rating, Dallisgrass [6, 19]: 20 | Plant response rating, Dallisgrass [6, 25]: 65 | Plant response rating, Dallisgrass [6, 20]: 98 | Plant response rating, Guineagrass [7, 16]: 20 | Plant response rating, Guineagrass [7, 17]: 30 | Plant response rating, Guineagrass [7, 21]: 35 | Plant response rating, Guineagrass [7, 18]: 30 | Plant response rating, Guineagrass [7, 22]: 0 | Plant response rating, Guineagrass [7, 19]: 0 | Plant response rating, Guineagrass [7, 25]: 0 | Plant response rating, Guineagrass [7, 20]: 0 | Plant response rating, Itchgrass [8, 16]: 0 | Plant response rating, Itchgrass [8, 17]: 40 | Plant response rating, Itchgrass [8, 21]: 65 | Plant response rating, Itchgrass [8, 18]: 40 | Plant response rating, Itchgrass [8, 22]: 0 | Plant response rating, Itchgrass [8, 19]: 0 | Plant response rating, Itchgrass [8, 25]: 0 | Plant response rating, Itchgrass [8, 20]: 20 | Plant response rating, Kochia (kochia (Kochia scoparia); [16]): 20 | Plant response rating, Kochia (kochia (Kochia scoparia); [17]): 30 | Plant response rating, Kochia (kochia (Kochia scoparia); [21]): 40 | Plant response rating, Kochia (kochia (Kochia scoparia); [18]): 30 | Plant response rating, Kochia (kochia (Kochia scoparia); [22]): 0 | Plant response rating, Kochia (kochia (Kochia scoparia); [19]): 0 | Plant response rating, Kochia (kochia (Kochia scoparia); [25]): 50 | Plant response rating, Kochia (kochia (Kochia scoparia); [20]): 50 | Plant response rating, Crabgrass, Large [9, 16]: 40 | Plant response rating, Crabgrass, Large [9, 17]: 50 | Plant response rating, Crabgrass, Large [9, 21]: 70 | Plant response rating, Crabgrass, Large [9, 18]: 60 | Plant response rating, Crabgrass, Large [9, 22]: 0 | Plant response rating, Crabgrass, Large [9, 19]: 25 | Plant response rating, Crabgrass, Large [9, 25]: 60 | Plant response rating, Morningglory [10, 16]: 65 | Plant response rating, Morningglory [10, 17]: 65 | Plant response rating, Morningglory [10, 21]: 70 | Plant response rating, Morningglory [10, 18]: 70 | Plant response rating, Morningglory [10, 19]: 0 | Plant response rating, Morningglory [10, 25]: 0 | Plant response rating, Morningglory [10, 20]: 90 | Plant response rating, Nutsedge, Purple [11, 16]: 0 | Plant response rating, Nutsedge, Purple [11, 17]: 10 | Plant response rating, Nutsedge, Purple [11, 21]: 50 | Plant response rating, Nutsedge, Purple [11, 18]: 35 | Plant response rating, Nutsedge, Purple [11, 22]: 0 | Plant response rating, Nutsedge, Purple [11, 19]: 0 | Plant response rating, Nutsedge, Purple [11, 25]: 0 | Plant response rating, Nutsedge, Purple [11, 20]: 70 | Plant response rating, Purslane [12, 16]: 30 | Plant response rating, Purslane [12, 17]: 30 | Plant response rating, Purslane [12, 21]: 50 | Plant response rating, Purslane [12, 18]: 30 | Plant response rating, Purslane [12, 22]: 0 | Plant response rating, Purslane [12, 19]: 0 | Plant response rating, Purslane [12, 25]: 100 | Plant response rating, Purslane [12, 20]: 100 | Plant response rating, Signalgrass [13, 16]: 0 | Plant response rating, Signalgrass [13, 17]: 30 | Plant response rating, Signalgrass [13, 21]: 35 | Plant response rating, Signalgrass [13, 18]: 35 | Plant response rating, Signalgrass [13, 22]: 0 | Plant response rating, Signalgrass [13, 19]: 0 | Plant response rating, Signalgrass [13, 20]: 5 | Plant response rating, Sowthistle [14, 16]: 100 | Plant response rating, Sowthistle [14, 17]: 100 | Plant response rating, Sowthistle [14, 21]: 100 | Plant response rating, Sowthistle [14, 18]: 100 | Plant response rating, Sowthistle [14, 22]: 80 | Plant response rating, Sowthistle [14, 19]: 80 | Plant response rating, Sowthistle [14, 20]: 100 | Plant response rating, Spanishneedles [15, 16]: 35 | Plant response rating, Spanishneedles [15, 17]: 50 | Plant response rating, Spanishneedles [15, 21]: 65 | Plant response rating, Spanishneedles [15, 18]: 50 | Plant response rating, Spanishneedles [15, 22]: 0 | Plant response rating, Spanishneedles [15, 19]: 0 | Plant response rating, Spanishneedles [15, 20]: 100 | Plant response rating, Spanishneedles [15, 23]: 90
